Source: patent publication US20220273671A1, “TOPICAL FORMULATIONS FOR TREATMENT OF PERIPHERAL NEUROPATHIES” (priority 2019, published 2022)
≈ marks a conversion by molar mass, not a printed value.

Tests used:
M1R = biological target: T1, M1R (Homo sapiens, UniProt P11229); details: cited from earlier work
T1 sequence (P11229 1-460): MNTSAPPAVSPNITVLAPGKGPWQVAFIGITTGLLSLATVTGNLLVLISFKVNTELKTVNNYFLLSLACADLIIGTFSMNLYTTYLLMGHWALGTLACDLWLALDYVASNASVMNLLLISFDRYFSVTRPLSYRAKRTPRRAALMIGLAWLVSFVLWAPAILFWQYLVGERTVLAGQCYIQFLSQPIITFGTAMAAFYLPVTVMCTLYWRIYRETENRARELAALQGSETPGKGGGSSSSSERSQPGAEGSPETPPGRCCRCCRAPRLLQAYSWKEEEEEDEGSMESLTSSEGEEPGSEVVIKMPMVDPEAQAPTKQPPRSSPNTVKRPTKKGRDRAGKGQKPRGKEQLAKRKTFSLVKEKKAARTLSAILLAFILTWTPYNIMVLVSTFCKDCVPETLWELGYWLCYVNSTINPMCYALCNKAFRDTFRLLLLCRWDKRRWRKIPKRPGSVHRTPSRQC

[1] = Plasma pharmacokinetics of topical pirenzepine formulations in healthy volunteers, 14 days; details: any subject, any time point, any day
Method: PK: Blood samples were collected for the determination of pirenzepine concentration at the following nominal times:
Blood samples on Days 1, 7, and 14 were collected via either the indwelling intravenous (IV) cannula to reduce the frequency of direct venipuncture (at the discretion of the Investigator).
A validated liquid chromatography tandem mass-spectroscopy method (LLOQ: 0.1 ng/mL and ULOQ: 200 ng/mL) was used to determine the concentration of pirenzepine in plasma. […] For the pirenzepine concentration analysis in biopsy samples, a qualified method (LLOQ 1.00 mg/mL) was used.
Pirenzepine concentrations in plasma and skin biopsies were evaluated using Phoenix™ WinNonlin® version 8.0 (Pharsight Corporation, USA) and Microsoft® Excel® 2010 (Microsoft Corporation, USA).
Pharmacokinetic Population: According to the statistical analysis plan, the PK population comprised all randomized subjects with evaluable plasma concentrations of pirenzepine (ie, subjects with plasma concentrations considered sufficient and interpretable [at the discretion of the pharmacokineticist]). […] Any exclusion from the PK population was determined by the pharmacokineticist on blinded data, after database lock and prior to unblinding the study. […]
The goodness of fit of the regression was evaluated using the adjusted square of the correlation coefficient (R2 adjusted). […]

diabetic mice = details: topical; cited from earlier work
[2] = cited from earlier work

O=C(CCNS(=O)(=O)c1cccc2nsnc12)N1CCN(c2ccncc2)CC1 [VU0255035]
selectivity to M1R relative to M2, M3, M4 and M5 receptors (M1R): 75 times

O=C1Nc2cccnc2N(C(=O)CN2CCNCC2)c2ccccc21 [desmethyl pirenzepine]
plasma level of the primary metabolite [1]: not quantifiable

CN1CCN(CC(=O)N2c3ccccc3C(=O)Nc3cccnc32)CC1 [pirenzepine]
intraepidermal nerve fibers (diabetic mice): prevented and reversed loss of intraepidermal nerve fibers
motor nerve conduction velocity (diabetic mice): prevented deficits in motor nerve conduction velocity
sub-epidermal nerve plexus (diabetic mice): prevented loss of sub-epidermal nerve plexus
tactile allodynia (diabetic mice): prevented tactile allodynia
thermal hypoalgesia (diabetic mice): prevented and reversed the development of thermal hypoalgesia
Log P [2]: 0.6
Solubility [2]: 68.2 µg/mL (≈ 194 µM)
